Consider seven compounds from article PMC4578755, “Development of novel cellular histone-binding and chromatin-displacement assays for bromodomain drug discovery” (Epigenetics & Chromatin, 2015).

Assay [1] deals with histone H3K23Ac mark in HeLa cells. Nature of the assay: H3K23 acetylation in HeLa cells (Western blot, anti-H3K23Ac immunostaining). The class given is cell-based. The following applies: HDAC inhibitor treatment, 2 µM, 2 h; Western blot. On the procedure: Standard IF procedures were used. Briefly, cells were permeabilized (0.5 % Triton X-100 in PBS) for 15 min and incubated with blocking solution (DAKO #X0909) for 30 min. The following primary antibodies were used: goat anti-V5 (Bethyl #A190-119A) 1:200; mouse anti-FLAG (Sigma #F1804) 1:200; rabbit anti-BRD4 (Abcam #ab128874) 1:200; rabbit anti-TRIM24 (Proteintech #14208-1-AP) 1:400; rabbit anti-K3K23Ac (Cell Signaling #8848) 1:200, and mouse anti-histone H3 (Active Motif #39763) 1:4000. Alexa Fluor-conjugated secondary antibodies were from Invitrogen and Hoechst 33342 (Invitrogen, #H3570) was used for nuclei counterstaining (10 µg/ml). For each Alexa fluorochrome, images (4–10 fields per well; 20X magnifications) were acquired using the Operetta High-Content Screening System (PerkinElmer). Image analysis was performed in Harmony software (PerkinElmer) by selecting nuclei and cytoplasm in Hoechst channel. Gating for single cells of flat morphology was done based on nuclei area, roundness and intensity of Hoechst in the nucleus and in the cytoplasm. In every gated cell, the mean signal intensity value for each fluorochrome was calculated separately in nucleus and cytoplasm. The specific nuclear signal was estimated subtracting mean cytoplasmic value from nuclear; and average value was calculated using at least 1000 cells in each well.
In general terms: A western blot detects proteins with antibodies after separation by electrophoresis.

Assay [2] concerns FLAG-tagged BRD4 in HeLa cells. Kind of assay: In situ cell extraction with IF, BRD4 displacement from chromatin. The following applies: for IF signal for histone H3: HeLa FLAG-BRD4, two-color staining. The class given is cell-based.
The subject of the next assay is SMARCA2. More on the design: method as in PMID 26139243. As to conditions: cited from earlier work.
The target of assay [3] is biotinylated H3K23Ac peptide (N-terminal residues 1-33 of histone H3). Nature of the assay: AlphaScreen or HTRF; AlphaScreen; biotinylated H3K23Ac peptide in excess (1 µM), indicated amounts of His-TRIM24 WT or N980A; streptavidin donor beads and Ni-NTA acceptor beads. Background: In Alpha technology, singlet oxygen from a donor bead excites a nearby acceptor bead.
biotinylated H3K23Ac peptide (N-terminal residues 1-33 of histone H3), sequence (peptide, as listed by the source): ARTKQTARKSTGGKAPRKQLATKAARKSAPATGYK
For assay [4] the target is unchanged. Kind of assay: AlphaScreen or HTRF; AlphaScreen optimisation matrix of TRIM24 protein and peptide (twofold dilution series); final conditions 5 nM TRIM24 and 15 nM peptide; Buffer B (50 mM Hepes pH 7.4, 100 mM NaCl, 0.1 % BSA, 0.05 % Chaps), room temperature.
Assay [5] deals with T1, FLAG-tagged BRD4 in HeLa cells (Homo sapiens, UniProt O60885).
T1 construct: expressed in transfected cells; host or cells: HeLa
Nature of the assay: In situ cell extraction with IF, BRD4 displacement from chromatin. The class given is cell-based. The following applies: HeLa FLAG-BRD4, 96-well, IF.

Assay [6] addresses FLAG-TRIM24-PHD-Bromo-V5 (isolated PHD-bromodomain, residues 810-1050) (human) (UniProt O15164). Nature of the assay: proximity ligation; HeLa TRIM24-PB cells, fixed; goat anti-V5 and mouse anti-histone H3 antibody pair; with and without SAHA (5 µM, 2 h).
The target is the same in assay [7]. Kind of assay: AlphaScreen or HTRF; AlphaLISA on lysates of HeLa TRIM24-PB cells pretreated with SAHA or DMSO; anti-FLAG or anti-V5 acceptor beads, biotinylated anti-histone H3 antibody, streptavidin donor beads; histone extraction buffer diluted in water.

Turning to `CC(/C=C/C(=O)NO)=C\[C@@H](C)C(=O)c1ccc(N(C)C)cc1` [TSA, Trichostatin A], the “Cellular histone H3K23Ac mark” value in assay [1] was “hyperacetylated”.

For `Cc1sc2c(c1C)C(c1ccc(Cl)cc1)=N[C@@H](CC(=O)OC(C)(C)C)c1nnc(C)n1-2` [JQ1], the “IF signal for histone H3” value in assay [2] is “unaffected”. Also, the “Time to decrease in BRD4 bromodomain binding to chromatin” value in assay [2] (JQ1 1 µM, HeLa expressing FLAG-tagged bromodomain of BRD4) is reported as at most 5 min.

For `O=C(/C=C/N1C[C@H]2C[C@@H]1CN2c1ccccn1)c1ccccc1O` [PFI-3], the “Displacement of endogenous full-length SMARCA2 protein from chromatin” value with SMARCA2 is “fails to displace”. Also, the “Displacement of isolated GFP-tagged SMARCA2 bromodomain from chromatin” value in the assay on SMARCA2 (engineered cells) was “can displace”.

“His-tagged TRIM24 PHD-bromodomain, wild type (domain or fragment)” showed an AlphaScreen signal to background (S/B) in assay [3] of over 250. The same compound showed an AlphaScreen S/B at 5 nM TRIM24 and 15 nM peptide in assay [4] of 432.

Turning to I-BET 151, the “IF signal for histone H3” value in assay [2] is “unaffected”.

In the case of `COc1cc(OC)c2c(=O)[nH]c(-c3cc(C)c(OCCO)c(C)c3)nc2c1` [RVX-208], in assay [5], the “Displacement of BRD4 from chromatin” value was “partial displacement”.

With “endogenous histone H3 (from UniProt P68431 1-136) (natural protein)”, the fold increase of the PLA signal with SAHA against no SAHA in assay [6] was over 3 fold. For the same compound, in assay [7], the AlphaLISA S/B (FLAG-acceptor beads, histone extraction buffer diluted 1:10) turned out to be 50 fold; the AlphaLISA S/B (FLAG-acceptor beads, histone extraction buffer replaced by water) stood at 20; the AlphaLISA S/B (V5-acceptor beads) was 14 fold; the AlphaLISA S/B (final 384-well protocol, 26 plates) came to 30.
